The text below walks through data of US10517850B2, “Combination of TAFIa inhibitor with plasminogen activator” (DAIICHI SANKYO COMPANY, LIMITED, priority 2015, dated 2019).

The test system of experiment [1] is fibrinolytic activity (D-dimer level in plasma). The experiment in a line: Test on combined use with t-PA: tissue factor-infused rats, plasma D-dimer level as index for fibrinolytic activity. It counts as in vivo, male Wistar rats. The note with it: for D-dimer level Mean: jugular vein, blood at 45 min, N=7, control 5.0. The method, then: 1. Preparation of Administration Solution
(1) (2S)-5-Amino-2-{[1-(trans-4-methylcyclohexyl)-1H-imidazol-4-yl]methyl}valeric acid p-toluenesulfonate anhydrate (hereinafter, referred to as “compound A”) was dissolved in saline to prepare a 1.0 mg/mL solution. The solution was further diluted to 0.0050 mg/mL using saline. The dose of compound A was indicated in terms of a free form (conversion factor: 0.6301).
(2) t-PA (alteplase (Activacin (registered trademark) for Injection 6,000,000), Kyowa Hakko Kirin Co., Ltd.) was adjusted to 600,000 I.U./mL (which was defined as 1.0 mg/mL) with injectable water included therein. The resulting solution was further diluted to 0.17, 0.083, and 0.042 mg/mL using saline.
(3) The 0.0050 mg/mL compound A solution was mixed with an equal amount of saline or the 0.042 mg/mL t-PA solution to respectively prepare administration solutions for a compound A (2.5 μg/kg) group and a combination group. The 0.17, 0.083, and 0.042 mg/mL t-PA solutions were mixed with an equal amount of saline to respectively prepare administration solutions for t-PA (0.083, 0.042, and 0.021 mg/kg) groups.
(4) 4 mL of saline was added to 10 mL (standard) of a tissue factor (Dade (registered trademark) Innovin (registered trademark), Sysmex Corp.) to prepare a tissue factor solution.
(1) Ten-week-old male Wistar rats (Japan SLC, Inc.) were fasted from a day before the experiment. On the basis of their body weights measured in the morning on the day of the experiment, 7 rats were assigned to each of 6 groups: a control (saline) group, a compound A (2.5 μg/kg) group, t-PA (0.021, 0.042, and 0.083 mg/kg) groups, and a combination group of compound A (2.5 μg/kg) and t-PA (0.021 mg/kg).
(2) These rats were anesthetized by the administration of 100 mg/kg thiopental sodium (Ravonal (registered trademark), Mitsubishi Tanabe Pharma Corp.), and the tissue factor solution was continuously administered at 7.5 mL/kg/hr for 20 minutes from the jugular veins. 25 minutes after the start of the administration of the tissue factor, the administration solution for each group was rapidly administered from the jugular veins. 45 minutes after the start of the administration of the tissue factor, blood was collected from the jugular veins into syringes supplemented with citric acid in advance, and plasma was prepared by centrifugation. The plasma was diluted 20-fold using a factor diluent (LSI Medience Corp.). D-dimer levels were measured using LPIA-Ace D-D dimer II and ACL TOP 500 CTS (Instrumentation Laboratory) and used as an index for fibrinolytic activity (FIG. 1).
(1) Microsoft Excel 2003 and SAS System Release 8.2 were used in statistical analysis.
(2) For each group, the basic statistics (mean and standard error) of the D-dimer levels were calculated and used as results relating to fibrinolytic activity (Table 1).
(3) The comparison of the compound A (2.5 μg/kg) group with the control (saline) group was carried out by the Student's t test. The calculated P value was rounded off and indicated down to four decimal places, and the significance level was set to two-sided 5%.
(4) The comparison of the t-PA (0.021, 0.042, and 0.083 mg/kg) groups with the control (saline) group was carried out by the parametric Dunnett's test. The calculated P value was rounded off and indicated down to four decimal places, and the significance level was set to two-sided 5%.
(5) The comparison of the compound A (2.5 μg/kg) group or the t-PA (0.021 mg/kg) single administration group with the combination group was carried out by the parametric Dunnett's test. The calculated P value was rounded off and indicated down to four decimal places, and the significance level was set to two-sided 5%.
(6) The comparison of the compound A (2.5 μg/kg) group or the t-PA (0.021 mg/kg) single administration group with the combination group was carried out by two-way ANOVA. […]

Experiment [2] has the same test system. As to the kind of experiment: Test on combined use with u-PA: tissue factor-infused rats, plasma D-dimer level as index for fibrinolytic activity. Type of experiment: in vivo, male Wistar rats. The method, then: (1) u-PA (urokinase injection “Fuji” (registered trademark) 60,000, Wakamoto Co., Ltd.) was adjusted to 90 kU/mL with injectable water.
(2) Compound A was dissolved in saline to prepare a 1.0 mg/mL solution. The solution was further diluted to 0.0050 mg/mL using saline. The dose of compound A was indicated in terms of a free form (conversion factor: 0.6301).
(3) Appropriate amounts of saline, the 90 kU/mL u-PA solution, and the 0.0050 mg/mL compound A solution were mixed to respectively prepare administration solutions for a u-PA (30 kU/kg) group, a compound A (2.5 μg/kg) group, and a combination group of u-PA (30 kU/kg) and compound A (2.5 μg/kg).
(4) 5 mL of saline was added to 10 mL (standard) of a tissue factor (Dade (registered trademark) Innovin (registered trademark), Sysmex Corp.) to prepare a tissue factor solution.
(1) Eleven-week-old male Wistar rats (Japan SLC, Inc.) were fasted from a day before the experiment. On the basis of their body weights measured in the morning on the day of the experiment, 8 rats were assigned to each of 4 groups: a control (saline) group, a u-PA (30 kU/kg) group, a compound A (2.5 μg/kg) group, and a combination group of u-PA (30 kU/kg) and compound A (2.5 μg/kg). […]
(2) For each group, the basic statistics (mean and standard error) of the D-dimer levels were calculated and used as results relating to fibrinolytic activity (Table 2). […]

Turning to “t-PA: tissue plasminogen activator, alteplase (Activacin for Injection 6,000,000, Kyowa Hakko Kirin)”, the “D-dimer level Mean” value in experiment [1] (t-PA 0.021 mg/kg alone) is 25.0 µg/mL; in experiment [1] (t-PA 0.042 mg/kg alone), 95.2 µg/mL; in experiment [1] (t-PA 0.083 mg/kg alone), 254.7 µg/mL. Further, the “fibrinolytic activity (D-dimer level) with respect to the control (saline) group” value is on record as “did not exhibit significantly excellent fibrinolytic activity” in experiment [1] (t-PA 0.021 mg/kg, parametric Dunnett's test, P=0.3080); “exhibited significantly excellent fibrinolytic activity” in experiment [1] (t-PA 0.042 mg/kg, parametric Dunnett's test, P<0.0001); “exhibited significantly excellent fibrinolytic activity” in experiment [1] (t-PA 0.083 mg/kg, parametric Dunnett's test, P<0.0001).

As for `C[C@H]1CC[C@H](n2cnc(C[C@H](CCCN)C(=O)O)c2)CC1.Cc1ccc(S(=O)(=O)O)cc1` (relative stereo) [Compound A, (2S)-5-Amino-2-{[1-(trans-4-methylcyclohexyl)-1H-imidazol-4-yl]methyl}valeric acid p-toluenesulfonate anhydrate], the “D-dimer level Mean” value in experiment [1] (compound A 2.5 μg/kg (free form) alone, 25 min after start of tissue factor) was determined as 26.4 µg/mL; in experiment [2] (compound A 2.5 μg/kg (free form) alone, jugular vein, blood at 45 min, N=8, control 24.2), 103.8 µg/mL. In experiment [1] (compound A 2.5 μg/kg, Student's t test, P=0.1431), the “fibrinolytic activity (D-dimer level) with respect to the control (saline) group” value is given as “did not exhibit significantly excellent fibrinolytic activity”. Besides, in experiment [2] (compound A 2.5 μg/kg single administration, Student's t test, P=0.0019), the “fibrinolytic activity (D-dimer level) with respect to the control group” value is on record as “exhibited significantly excellent fibrinolytic activity”.
